According to patent publication US20090317376A1, “Compositions And Methods For Lipo Modeling” (Georgetown University MEDICAL SCHOOL, priority 2005, published 2009):

Tested on: 3T3-L1 preadipocytes
Assay: Preadipocyte proliferation (mitogenic assay)
Type: cell-based, murine
From the text: To mimic stress-released NPY in vitro, conditioned media from, or coculture with, neuroblastoma SKNBE cells (a model of sympathetic neurons which release 0.1 pM NPY) is used to treat endothelial cells and 3T3-L1 preadipocytes. Both cell lines express all NPYRs but lack NPY (confirmed by RT-PCR and IHC, FIG. […] 6). […] When 3T3-L1 preadipocytes are cocultured with HMVEC, there is no significant mitogenic response between treated and untreated cells.
Co-culture: For mitogenic assay and expression studies, co-culture is performed in a Costar Transwell system. Cells are plated on the 6-well plates and the inserts with 0.4 μm Polyester membranes. After they reach 30% confluence, the inserts are placed into plates with other cells. Co-culture of neuroblastomas/SCG neurons with aECs are carried out in EC media and with preadipocytes—in preadipocyte growth media. […] After 48 h, the cells are counted with a coulter counter. […]
Mitogenic assays: 3T3-L1 pre-adipocytes are allowed to grow to 30% confluency before serum-starving the cells. […] Proliferation is determined by cell counting using a coulter counter (Beckman Coulter, Miami, Fla.). […] After 24 h, cells are harvested in a 96-well harvester (Tomtec) and counted in a Betaplate Liquid Scintillation Counter (Wallac).
1. […] After 24 h, cells were harvested in a 96-well harvester (Tomtec) and counted in a Betaplate Liquid Scintillation Counter (Wallac). […]

Row | Compound | block of NPY- and neuroblastoma-conditioned media-stimulated preadipocyte proliferation (BIIE0246 1 μM) | preadipocyte proliferation (NPY treatment of 3T3-L1 preadipocytes)
1 | N=C(N)NCCC[C@H](NC(=O)CC1(CC(=O)N2CCN(C3c4ccccc4NC(=O)c4ccccc43)CC2)CCCC1)C(=O)NCCn1c(=O)n(-c2ccccc2)n(-c2ccccc2)c1=O (some centres unmarked) [BIIE0246] | blocked | –
2 | neuropeptide Y [NPY] | – | stimulated
